Assay results as given in patent US11207301B2, “Sphingosine 1 phosphate receptor agonists for neuroprotection” (RECEPTOS LLC, priority 2017, dated 2021).

System: experimental autoimmune encephalomyelitis (EAE)-induced mouse model of Multiple Sclerosis (MS)
Experiment: Experimental autoimmune encephalomyelitis (EAE)-induced mouse model of multiple sclerosis, oral ozanimod
Format: in vivo, C57BL/6 mice
Conditions: EAE mice
Source text: (§1) In one embodiment, the S1P receptor agonist provides therapeutic benefit in the context of relapsing-remitting multiple sclerosis (RRMS), by down-modulating S1P receptor and resulting in retention of autoreactive lymphocytes in secondary lymphoid organs. As set forth in greater detail below, ozanimod activity on immune cell subsets was examined in the experimental autoimmune encephalomyelitis (EAE)-induced mouse model of Multiple Sclerosis (MS). C57BL/6 mice were immunized with MOG35-55 and pertussis toxin to initiate immune cell activation, migration to the spinal cord and neurodegeneration. Animals were treated with oral ozanimod either semi-therapeutically or therapeutically to investigate the impact on peripheral immune cell expansion and migration into the spinal cord. The plasma biomarker of CNS injury, neurofilament light (NfL), was measured at study termination.
as §1, with “Ozanimod” for “In one embodiment, the S1P receptor agonist provides therapeutic benefit in the context of relapsing-remitting multiple sclerosis (RRMS), by down-modulating S1P receptor and resulting in retention of autoreactive lymphocytes in secondary lymphoid organs. As set forth in greater detail below, ozanimod”

CC(C)Oc1ccc(-c2nc(-c3cccc4c3CC[C@@H]4NCCO)no2)cc1C#N [Ozanimod]
spinal cord inflammation and demyelination: reduce spinal cord inflammation and demyelination | reduction of microglia expansion in the spinal cord (day 18-21 post-immunization): 75% | decrease of monocyte infiltration into the spinal cord (oral ozanimod): 65% | diminished Th1 and Th17 cell expansion in the periphery (oral ozanimod): 60-70% | reduction of the number of Th1 and Th17 cells in the spinal cord (oral ozanimod): ≥ 80% | plasma biomarker of CNS injury NfL (therapeutic dosing, at study termination, vehicle 3298±350, p=0.05): 2209 ± 393 pg/mL
